Earlier results on 1 molecule are cited in patent publication US10933035B2, “Antimicrobial silicone-based wound dressings” (Covalon Technologies Inc., priority 2010, dated 2021).

The conditions of the data set: 20° C.

As to `[H]/N=C(\N/C(=N/[H])NCCCCCCNC(=N)NC(=N)Nc1ccc(Cl)cc1)Nc1ccc(Cl)cc1` [Chlorhexidine], the Solubility in water is 0.008 % wt/vol.
